According to PMC12136037, “Type II kinase inhibitors that target Parkinson’s disease–associated LRRK2” (Science Advances, 2025):
Several values for one entry are separate records, joined by “and”; a condition that tells them apart may be missing. Identical values can stand only once. Like-named read-outs stand apart in the source and are kept apart here.

Key:
Assay in all cases: nanoBRET off-target validation
Assay type in all cases: cell-based
[1] = biological target: T1, MAPK14 (Homo sapiens, UniProt Q16539)
T1 construct: host or cells: HEK293T (ATCC CRL-3216)
Procedure: (§1) The assay was performed as described previously ([61]). In brief, full-length kinases as listed in table S6 were obtained as plasmids cloned in frame with terminal NanoLuc-fusion (gift from Promega; table S6). […] Serially diluted inhibitor and corresponding tracer as listed in table S6 at the Tracer KD concentration taken from TracerDB (tracerdb.org) ([62]) were pipetted into white 384-well plates (Greiner, 781207) using an ECHO acoustic dispenser (Labcyte). The corresponding protein-transfected cells were added and reseeded at a density of 2 × 10^5 cells/ml after trypsinization and resuspending in Opti-MEM without phenol red (Life Technologies). The system was allowed to equilibrate for 3 hours at 37°C/5% CO2 before bioluminescence resonance energy transfer (BRET) measurements. To measure BRET, NanoBRET NanoGlo Substrate + extracellular NanoLuc Inhibitor (Promega, N2540) was added as per the manufacturer’s protocol, and filtered luminescence was measured on a PHERAstar plate reader (BMG Labtech) equipped with a luminescence filter pair [450-nm BP filter (donor) and 610-nm LP filter (acceptor)]. […] (For step-by-step protocol, see www.eubopen.org/sites/www.eubopen.org/files/attachments/2021/NanoBRET-IC50_v1_0.pdf.)

[2] = biological target: T2, TTK (Homo sapiens, UniProt P33981)
T2 construct: host or cells: HEK293T (ATCC CRL-3216)
T2 sequence (P33981 1-857): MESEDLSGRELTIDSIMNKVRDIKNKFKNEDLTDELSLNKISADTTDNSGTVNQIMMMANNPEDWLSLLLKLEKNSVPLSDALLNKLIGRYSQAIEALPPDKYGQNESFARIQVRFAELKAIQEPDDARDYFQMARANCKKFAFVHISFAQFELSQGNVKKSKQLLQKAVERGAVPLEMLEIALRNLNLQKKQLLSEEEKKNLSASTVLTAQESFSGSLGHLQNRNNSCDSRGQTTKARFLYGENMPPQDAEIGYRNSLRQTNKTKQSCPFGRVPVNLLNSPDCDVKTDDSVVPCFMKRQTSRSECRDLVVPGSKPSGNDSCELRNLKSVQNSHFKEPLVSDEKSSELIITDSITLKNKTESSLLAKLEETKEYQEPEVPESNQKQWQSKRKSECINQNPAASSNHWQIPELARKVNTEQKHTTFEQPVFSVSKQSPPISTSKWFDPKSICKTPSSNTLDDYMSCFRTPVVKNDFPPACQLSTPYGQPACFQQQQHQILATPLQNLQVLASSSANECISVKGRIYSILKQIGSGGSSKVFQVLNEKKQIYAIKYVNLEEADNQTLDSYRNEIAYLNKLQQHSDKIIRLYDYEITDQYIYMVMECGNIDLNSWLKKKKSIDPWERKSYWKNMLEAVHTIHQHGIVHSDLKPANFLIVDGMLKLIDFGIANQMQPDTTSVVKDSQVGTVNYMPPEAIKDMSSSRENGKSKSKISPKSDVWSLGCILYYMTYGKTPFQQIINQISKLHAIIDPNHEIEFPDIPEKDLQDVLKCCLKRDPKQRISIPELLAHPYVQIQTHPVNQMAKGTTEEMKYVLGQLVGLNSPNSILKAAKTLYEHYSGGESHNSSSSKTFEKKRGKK
Procedure: as §1

[3] = biological target: T3, DYRK2 (Homo sapiens, UniProt Q92630)
T3 construct: host or cells: HEK293T (ATCC CRL-3216)
T3 sequence (Q92630 1-601): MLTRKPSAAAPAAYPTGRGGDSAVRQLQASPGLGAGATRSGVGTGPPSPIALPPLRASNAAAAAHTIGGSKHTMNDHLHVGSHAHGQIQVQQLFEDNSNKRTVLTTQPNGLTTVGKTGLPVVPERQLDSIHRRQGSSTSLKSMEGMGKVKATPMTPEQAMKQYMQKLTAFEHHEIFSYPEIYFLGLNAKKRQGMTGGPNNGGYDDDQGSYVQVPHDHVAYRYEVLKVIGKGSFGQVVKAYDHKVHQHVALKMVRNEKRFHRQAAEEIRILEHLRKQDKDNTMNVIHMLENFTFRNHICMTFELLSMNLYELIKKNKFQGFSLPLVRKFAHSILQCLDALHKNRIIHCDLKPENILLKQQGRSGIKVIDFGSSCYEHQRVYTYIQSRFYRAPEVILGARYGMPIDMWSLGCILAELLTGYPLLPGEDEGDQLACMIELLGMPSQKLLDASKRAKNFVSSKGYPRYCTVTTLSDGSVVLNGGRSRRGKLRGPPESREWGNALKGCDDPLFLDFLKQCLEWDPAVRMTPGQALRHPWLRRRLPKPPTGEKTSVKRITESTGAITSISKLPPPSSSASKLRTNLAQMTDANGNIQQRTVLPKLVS
Procedure: as §1

[4] = in cellulo nanoBRET, 293T cells

T1 sequence (Q16539 whole entry): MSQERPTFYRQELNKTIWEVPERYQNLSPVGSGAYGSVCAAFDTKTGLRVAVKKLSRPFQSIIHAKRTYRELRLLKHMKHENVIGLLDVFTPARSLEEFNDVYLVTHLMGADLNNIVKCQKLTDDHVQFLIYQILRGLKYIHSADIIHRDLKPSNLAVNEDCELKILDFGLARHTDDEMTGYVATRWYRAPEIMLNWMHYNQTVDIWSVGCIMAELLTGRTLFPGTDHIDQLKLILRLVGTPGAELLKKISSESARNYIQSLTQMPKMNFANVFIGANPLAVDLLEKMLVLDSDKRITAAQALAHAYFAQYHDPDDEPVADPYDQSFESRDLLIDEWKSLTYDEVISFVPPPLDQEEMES

## CCSc1nc(NC)c2c(-c3cccc(NC(=O)Nc4cc(C(C)(C)C)nn4-c4ccc(C)cc4)c3)c[nH]c2n1 [Compound 32]
[1]; MAPK14, inhibitor 8 nM, two replicates, listed as RN341, 0.008 µM
  nanoBRET response normalized to 0% (no tracer) and 100% (no inhibitor) control: 98.3554%
[1]; MAPK14, inhibitor 8 nM, two replicates, read-out: nanoBRET response normalized to 0% (no tracer) and 100% (no inhibitor) control
  remaining activity at 0.008 µM: 100%
[1]; MAPK14, inhibitor 16 nM, two replicates, listed as RN341, 0.016 µM
  nanoBRET response normalized to 0% (no tracer) and 100% (no inhibitor) control: 103.532%
[1]; MAPK14, inhibitor 16 nM, two replicates, read-out: nanoBRET response normalized to 0% (no tracer) and 100% (no inhibitor) control
  remaining activity at 0.016 µM: 96.2%
[1]; MAPK14, inhibitor 50 nM, two replicates, listed as RN341, 0.05 µM
  nanoBRET response normalized to 0% (no tracer) and 100% (no inhibitor) control: 95.4254%
[1]; MAPK14, inhibitor 50 nM, two replicates, read-out: nanoBRET response normalized to 0% (no tracer) and 100% (no inhibitor) control
  remaining activity at 0.05 µM: 90.1%
[1]; MAPK14, inhibitor 250 nM, two replicates, listed as RN341, […]
  nanoBRET response normalized to 0% (no tracer) and 100% (no inhibitor) control: 83.4876%
[1]; MAPK14, inhibitor 250 nM, two replicates, read-out: nanoBRET response normalized to 0% (no tracer) and 100% (no inhibitor) control
  remaining activity at […]: 73.2%
[1]; MAPK14, inhibitor 500 nM, two replicates, listed as RN341, 0.5 µM
  nanoBRET response normalized to 0% (no tracer) and 100% (no inhibitor) control: 52.7705%
[1]; MAPK14, inhibitor 500 nM, two replicates, read-out: nanoBRET response normalized to 0% (no tracer) and 100% (no inhibitor) control
  remaining activity at 0.5 µM: 57.4%
[1]; MAPK14, inhibitor 2500 nM, two replicates, listed as RN341, […]
  nanoBRET response normalized to 0% (no tracer) and 100% (no inhibitor) control: 49.0355%
[1]; MAPK14, inhibitor 2500 nM, two replicates, read-out: nanoBRET response normalized to 0% (no tracer) and 100% (no inhibitor) control
  remaining activity at […]: 48.5%
[1]; MAPK14, inhibitor 5000 nM, two replicates, listed as RN341, 5 µM
  nanoBRET response normalized to 0% (no tracer) and 100% (no inhibitor) control: 40.5445%
[1]; MAPK14, inhibitor 5000 nM, two replicates, read-out: nanoBRET response normalized to 0% (no tracer) and 100% (no inhibitor) control
  remaining activity at 5 µM: 48.2%
[1]; MAPK14, inhibitor 25000 nM, two replicates, listed as RN341, 25 µM
  nanoBRET response normalized to 0% (no tracer) and 100% (no inhibitor) control: 17.1717%
[1]; MAPK14, inhibitor 25000 nM, two replicates, read-out: nanoBRET response normalized to 0% (no tracer) and 100% (no inhibitor) control
  remaining activity at 25 µM: 25.4%
[1]; [4]
  EC50: < 5 µM and 1.7 µM
[2]; TTK, inhibitor 8 nM, two replicates, listed as RN341, 0.008 µM
  nanoBRET response normalized to 0% (no tracer) and 100% (no inhibitor) control: 91.3329%
[2]; TTK, inhibitor 8 nM, two replicates, read-out: nanoBRET response normalized to 0% (no tracer) and 100% (no inhibitor) control
  remaining activity at 0.008 µM: 96.9%
[2]; TTK, inhibitor 16 nM, two replicates, listed as RN341, 0.016 µM
  nanoBRET response normalized to 0% (no tracer) and 100% (no inhibitor) control: 88.618%
[2]; TTK, inhibitor 16 nM, two replicates, read-out: nanoBRET response normalized to 0% (no tracer) and 100% (no inhibitor) control
  remaining activity at 0.016 µM: 84.1%
[2]; TTK, inhibitor 50 nM, two replicates, listed as RN341, 0.05 µM
  nanoBRET response normalized to 0% (no tracer) and 100% (no inhibitor) control: 96.6909%
[2]; TTK, inhibitor 50 nM, two replicates, read-out: nanoBRET response normalized to 0% (no tracer) and 100% (no inhibitor) control
  remaining activity at 0.05 µM: 85.3%
[2]; TTK, inhibitor 250 nM, two replicates, listed as RN341, […]
  nanoBRET response normalized to 0% (no tracer) and 100% (no inhibitor) control: 83.1162%
[2]; TTK, inhibitor 250 nM, two replicates, read-out: nanoBRET response normalized to 0% (no tracer) and 100% (no inhibitor) control
  remaining activity at […]: 80%
[2]; TTK, inhibitor 500 nM, two replicates, listed as RN341, 0.5 µM
  nanoBRET response normalized to 0% (no tracer) and 100% (no inhibitor) control: 67.3053%
[2]; TTK, inhibitor 500 nM, two replicates, read-out: nanoBRET response normalized to 0% (no tracer) and 100% (no inhibitor) control
  remaining activity at 0.5 µM: 61.5%
[2]; TTK, inhibitor 2500 nM, two replicates, listed as RN341, […]
  nanoBRET response normalized to 0% (no tracer) and 100% (no inhibitor) control: 72.9908%
[2]; TTK, inhibitor 2500 nM, two replicates, read-out: nanoBRET response normalized to 0% (no tracer) and 100% (no inhibitor) control
  remaining activity at […]: 70.3%
[2]; TTK, inhibitor 5000 nM, two replicates, listed as RN341, 5 µM
  nanoBRET response normalized to 0% (no tracer) and 100% (no inhibitor) control: 54.1735%
[2]; TTK, inhibitor 5000 nM, two replicates, read-out: nanoBRET response normalized to 0% (no tracer) and 100% (no inhibitor) control
  remaining activity at 5 µM: 40.9%
[2]; TTK, inhibitor 25000 nM, two replicates, listed as RN341, 25 µM
  nanoBRET response normalized to 0% (no tracer) and 100% (no inhibitor) control: 18.6146%
[2]; TTK, inhibitor 25000 nM, two replicates, read-out: nanoBRET response normalized to 0% (no tracer) and 100% (no inhibitor) control
  remaining activity at 25 µM: 14.2%
[2]; [4]
  EC50: < 5 µM and 3.2 µM
[3]
  EC50: ≥ 20 µM
[3]; DYRK2, inhibitor 8 nM, two replicates, listed as RN341, 0.008 µM
  nanoBRET response normalized to 0% (no tracer) and 100% (no inhibitor) control: 91.4839%
[3]; DYRK2, inhibitor 8 nM, two replicates, read-out: nanoBRET response normalized to 0% (no tracer) and 100% (no inhibitor) control
  remaining nanoBRET tracer signal (% of no-inhibitor control) at 0.008 µM: 100%
[3]; DYRK2, inhibitor 16 nM, two replicates, listed as RN341, 0.016 µM
  nanoBRET response normalized to 0% (no tracer) and 100% (no inhibitor) control: 93.886%
[3]; DYRK2, inhibitor 16 nM, two replicates, read-out: nanoBRET response normalized to 0% (no tracer) and 100% (no inhibitor) control
  remaining nanoBRET tracer signal (% of no-inhibitor control) at 0.016 µM: 98.2%
[3]; DYRK2, inhibitor 50 nM, two replicates, listed as RN341, 0.05 µM
  nanoBRET response normalized to 0% (no tracer) and 100% (no inhibitor) control: 96.6464%
[3]; DYRK2, inhibitor 50 nM, two replicates, read-out: nanoBRET response normalized to 0% (no tracer) and 100% (no inhibitor) control
  remaining nanoBRET tracer signal (% of no-inhibitor control) at 0.05 µM: 100%
[3]; DYRK2, inhibitor 250 nM, two replicates, read-out: nanoBRET response normalized to 0% (no tracer) and 100% (no inhibitor) control
  remaining nanoBRET tracer signal (% of no-inhibitor control) at […]: 102% and 94.4%
[3]; DYRK2, inhibitor 500 nM, two replicates, listed as RN341, 0.5 µM
  nanoBRET response normalized to 0% (no tracer) and 100% (no inhibitor) control: 90.6654%
[3]; DYRK2, inhibitor 500 nM, two replicates, read-out: nanoBRET response normalized to 0% (no tracer) and 100% (no inhibitor) control
  remaining nanoBRET tracer signal (% of no-inhibitor control) at 0.5 µM: 98.4%
[3]; DYRK2, inhibitor 2500 nM, two replicates, listed as RN341, […]
  nanoBRET response normalized to 0% (no tracer) and 100% (no inhibitor) control: 86.4231%
[3]; DYRK2, inhibitor 2500 nM, two replicates, read-out: nanoBRET response normalized to 0% (no tracer) and 100% (no inhibitor) control
  remaining nanoBRET tracer signal (% of no-inhibitor control) at […]: 88.8%
[3]; DYRK2, inhibitor 5000 nM, two replicates, listed as RN341, 5 µM
  nanoBRET response normalized to 0% (no tracer) and 100% (no inhibitor) control: 92.7606%
[3]; DYRK2, inhibitor 5000 nM, two replicates, read-out: nanoBRET response normalized to 0% (no tracer) and 100% (no inhibitor) control
  remaining nanoBRET tracer signal (% of no-inhibitor control) at 5 µM: 83.2%
[3]; DYRK2, inhibitor 25000 nM, two replicates, listed as RN341, 25 µM
  nanoBRET response normalized to 0% (no tracer) and 100% (no inhibitor) control: 54.6216%
[3]; DYRK2, inhibitor 25000 nM, two replicates, read-out: nanoBRET response normalized to 0% (no tracer) and 100% (no inhibitor) control
  remaining nanoBRET tracer signal (% of no-inhibitor control) at 25 µM: 47.6%
